From US12290520B2, “Methods of use of emulsion formulations of aprepitant” (Heron Therapeutics, Inc., priority 2014, dated 2025)

Experiment: Pharmacokinetics of aprepitant emulsion vs fosaprepitant solution, intravenous
Format: in vivo, male Sprague-Dawley rats
Settings: rat, equivalent to 14 mg/kg aprepitant
Procedure: The pharmacokinetics of an aprepitant emulsion prepared according to Example 1 was determined. Two groups of six male Sprague-Dawley rats each were injected intravenously with, respectively, fosaprepitant in solution or aprepitant emulsion prepared according to Example 1. All drugs were administered at an effective concentration equivalent to 14 mg/kg aprepitant. Blood from all rats was collected at the appropriate time intervals and processed to plasma by centrifugation. Plasma samples were analyzed by LC-MS/MS for aprepitant and fosaprepitant, as appropriate. A plasma concentration versus time curve of aprepitant for the emulsion described in Example 1 and for fosaprepitant is presented in FIG. 2 (fosaprepitant in solution, ●; aprepitant emulsion, ▴). The curves indicate the initial aprepitant level reached immediately after injection of the aprepitant emulsion was almost 3 times higher than the initial aprepitant level reached immediately after injection of the fosaprepitant solution.

Compound: C[C@@H](O[C@H]1OCCN(Cc2nc(O)n(P(=O)(O)O)n2)[C@H]1c1ccc(F)cc1)c1cc(C(F)(F)F)cc(C(F)(F)F)c1 [fosaprepitant]
- Plasma levels of aprepitant by the 3-hour time point, emulsion vs fosaprepitant solution: essentially the same
